Measurements as given in patent US10780092B2, “Fused pyrazine derivatives useful as soluble guanylate cyclase stimulators” (Merck Sharp & Dohme Corp., priority 2016, dated 2020).
pEC50, pKi: −log10 of the molar value.

Experiments:
[1] = system: hypoxia-induced pulmonary hypertension in rat; test: Acute efficacy in hypoxia-induced pulmonary hypertension in rat following intratracheal (IT) administration; assay type: in vivo; settings: decrease in SBP at dose giving decrease in PAP ≥15 mmHg
From the text: Acute Efficacy in Hypoxia-Induced Pulmonary Hypertension in Rat Following Intratracheal (IT) Administration Charles River Sprague-Dawley (CD) male rats weighing approximately 350 g were implanted with HD-S21 dual pressure telemetry transmitters (Data Sciences International (DSI)) into the pulmonary artery and femoral artery. This transmitter enables simultaneous measurement of both pulmonary and systemic hemodynamic parameters in the same animal. After a 7-10 day post-operative recovery period, animals were subjected to a normobaric hypoxic (10% oxygen) environment using a Higher Peak Mountain Air Generator (MAG-10) connected to a modified rodent cage via a fitted inlet port. Oxygen (at 10%), temperature, humidity, and CO2 were controlled within normal range and animals were maintained on a 12 hour light-dark cycle with ad libitum access to food and water. After two weeks exposure to 10% O2 hypoxic environment, systolic pulmonary arterial pressure readings increased from ˜25 mmHg to greater than 50 mmHg. Using a 48 hour baseline average, animals with readings between 50-110 mmHg (standard deviation of less than 10 mmHg) and minimal changes in systolic systemic blood pressure were enrolled for study. Animals were utilized for up to 2 studies per week for 4 weeks with a minimum of 2 days washout between doses of test agent. Compound or vehicle was administered intra-tracheally under light isoflurane anesthesia (5% in oxygen; flow rate 2.0 L/min for 3 minutes). Once anesthetized, rats were placed on an angled intubation stand in supine position and the trachea visualized using a small laryngoscope. Animals then received either 0.5 mL/kg of vehicle or 0.5 mL/kg vehicle containing compound intra-tracheally delivered via microsprayer by use of a Penn-Century Microsprayer® needle 3″ (Model IA-1B-GP) attached to a 1 mL high pressure syringe (Penn Century-Model B—SYR-PL1000) (Penn-Century, Philadelphia, Pa.). The Microsprayer® tip was inserted into the trachea up to the point at which the bend in the needle is close to the tip of the snout, which positions the tip of the Microsprayer® in front of the carina (bifurcation of trachea at the bronchi). After dose delivery the animal is placed on its back in the home cage for recovery. Hemodynamic measurements were continuously recorded and readings consolidated to hourly moving averages. Each animal received a vehicle on Day 1 followed by vehicle or test agent on Day 2. Change from vehicle baseline was calculated by subtracting the hourly Day 1 vehicle response from the hourly Day 2 response and treatment group data was expressed as mean±SEM. Decreases of systolic blood pressure (SBP) and systolic pulmonary arterial pressure (PAP) were measured at a particular IT dose (mpk milligrams per kilogram) for the following Example compounds. Compounds in the Table 13 achieved a minimum decrease in PAP of ≥15 mmHg for the corresponding decrease in SBP listed.

sGC α1/β1 heterodimer = sGC α1/β1 heterodimer (Homo sapiens (Human), UniProt Q02108+Q02153); test: Cell-based sGC functional assay (CASA assay), cGMP by HTRF; settings: CHO-K1/sGC cells; for Emax: CHO-K1, cGMP production as percentage of maximum of compound A (set to 100%), read-out: % Activation; for pEC50: inflection point of cGMP production, 4P fit, read-out: IP
Summary of the method: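 CHO-K1 cells stably expressing human sGC α1/β1, with 0.5 mM IBMX, pre-incubated ±1 μM DETA-NO 30 min at 25° C, then compound 1 hr at 37° C (2.5% DMSO). cGMP by HTRF; activation as % of reference activator maximum, 4P fit giving inflection point and maximum […].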

[2] = biological target: human recombinant sGC enzyme (Homo sapiens (Human), UniProt Q02108+Q02153); test: SEC competition binding assay with [3H] Compound B radioligand; settings: displacement of 1.6 nM [3H] Compound B, 24 h at 37° C.
Summary of the method: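 Recombinant human sGC incubated with 1.6 nM [3H] Compound B and test compounds for 24 h at 37° C. Buffer: 50 mM triethanolamine pH 7.4, 3 mM MgCl2, 0.025% BSA, 2 mM DTT, 300 μM DETA/NO, 400 μM GTP, 1% DMSO. Bound ligand separated by gel filtration and counted by scintillation; non-specific binding with 1 μM Compound B; Ki from one-site fit.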

SMILES | Emax (sGC α1/β1 heterodimer) [%] | pEC50 (sGC α1/β1 heterodimer) | pKi [2] | Category (decrease in SBP) ([1]; IT dose 0.03 mpk) | Category (decrease in SBP) ([1]; IT dose 0.3 mpk) | Category (decrease in SBP) ([1]; IT dose 0.01 mpk)
CC1(c2cc(O)c(C#N)c(F)c2)C(=O)Nc2nc(-c3cn4ccnc4c(Cc4cc(F)cc(F)c4)n3)nc(N)c21 (stereo not shown) [Example 38-B, 4-(4-Amino-2-{8-[(3,5-difluorophenyl)methyl]imidazo[1,2-a]pyrazin-6-yl}-5-methyl-6-oxo-6,7-dihydro-5H-pyrrolo[2,3-d]pyrimidin-5-yl)-2-fluoro-6-hydroxybenzonitrile] | 92 | 6.14 | 9.39 | A (decrease in SBP 0-5 mmHg) |  | 
CC1(c2cc(O)c(Cl)c(F)c2)C(=O)Nc2nc(-c3cn4ccnc4c(Cc4ccccc4F)n3)nc(N)c21 (stereo not shown) [Example 2-B, 4-Amino-5-(4-chloro-3-fluoro-5-hydroxyphenyl)-2-{8-[(2-fluorophenyl)methyl]imidazo[1,2-a]pyrazin-6-yl}-5-methyl-5,7-dihydro-6H-pyrrolo[2,3-d]pyrimidin-6-one] | 89 | 5.79 | 10.02 |  |  | A (decrease in SBP 0-5 mmHg)
CC1(c2ccc(C(F)(F)F)c(O)c2)C(=O)Nc2nc(-c3cn4ccnc4c(Cc4ccccc4F)n3)nc(N)c21 (stereo not shown) [Example 3-B, 4-Amino-2-{8-[(2-fluorophenyl)methyl]imidazo[1,2-a]pyrazin-6-yl}-5-[3-hydroxy-4-(trifluoromethyl)phenyl]-5-methyl-5,7-dihydro-6H-pyrrolo[2,3-d]pyrimidin-6-one] | 98 | 5.68 | 9.66 | A (decrease in SBP 0-5 mmHg) |  | 
CC1(c2cc(O)c(C(F)(F)F)c(F)c2)C(=O)Nc2nc(-c3cn4ccnc4c(CC4CCCCC4)n3)nc(N)c21 (stereo not shown) [Example 97-B, 4-Amino-2-(8-(cyclohexylmethyl)imidazo[1,2-a]pyrazin-6-yl)-5-(3-fluoro-5-hydroxy-4-(trifluoromethyl)phenyl)-5-methyl-5,7-dihydro-6H-pyrrolo[2,3-d]pyrimidin-6-one] | 138 | 5.97 | 9.23 | A (decrease in SBP 0-5 mmHg) |  | 
CC1(c2ccc(F)c(O)c2)C(=O)Nc2nc(-c3cn4ccnc4c(Cc4ccccc4F)n3)nc(N)c21 (stereo not shown) [Example 13-B, 4-Amino-5-(4-fluoro-3-hydroxyphenyl)-2-{8-[(2-fluorophenyl)methyl]imidazo[1,2-a]pyrazin-6-yl}-5-methyl-5,7-dihydro-6H-pyrrolo[2,3-d]pyrimidin-6-one] | 100 | 6.09 | 9.81 |  |  | A (decrease in SBP 0-5 mmHg)
CC1(c2cc(O)c(Cl)cn2)C(=O)Nc2nc(-c3cn4ccnc4c(Cc4ccccc4F)n3)nc(N)c21 (stereo not shown) [Example 4-B, 4-Amino-5-(5-chloro-4-hydroxypyridin-2-yl)-2-{8-[(2-fluorophenyl)methyl]imidazo[1,2-a]pyrazin-6-yl}-5-methyl-5,7-dihydro-6H-pyrrolo[2,3-d]pyrimidin-6-one] | 136 | 5.72 | 9.59 | A (decrease in SBP 0-5 mmHg) |  | 
CC1(c2cc(O)c(C#N)c(Cl)c2)C(=O)Nc2nc(-c3cn4ncnc4c(Cc4ccccc4F)n3)nc(N)c21 (stereo not shown) [Example 149-A, 4-(4-amino-2-{8-(2-fluorobenzyl)-[1,2,4]-triazolo[1,5-a]pyrazin-6-yl}-5-methyl-6-oxo-6,7-dihydro-5H-pyrrolo-[2,3-d]pyrimidin-5-yl)-2-chloro-6-hydroxy-benzonitrile] | 54 | 6.23 | 9.29 |  |  | 

Stronger by pEC50 (sGC α1/β1 heterodimer), values ahead:

Emax (sGC α1/β1 heterodimer) [%] | pEC50 (sGC α1/β1 heterodimer) | pKi [2] | SMILES | Category (decrease in SBP) ([1]; IT dose 0.03 mpk) | Category (decrease in SBP) ([1]; IT dose 0.3 mpk) | Category (decrease in SBP) ([1]; IT dose 0.01 mpk)
93 | 6.69 | 8.05 | CC1(c2cccc(O)c2)C(=O)Nc2nc(-c3cn4ncnc4c(CCC(F)(F)C(F)(F)F)n3)nc(N)c21 (stereo not shown) [Example 78-B, 4-Amino-5-(3-hydroxyphenyl)-5-methyl-2-(8-(3,3,4,4,4-pentafluorobutyl)-[1,2,4]triazolo[1,5-a]pyrazin-6-yl)-5,7-dihydro-6H-pyrrolo[2,3-d]pyrimidin-6-one] |  | C (decrease in SBP >10 mmHg) | 
118 | 6.65 | 10.02 | CC1(c2ccc(Cl)c(O)c2)C(=O)Nc2nc(-c3cn4ccnc4c(Cc4cccc(F)c4)n3)nc(N)c21 (stereo not shown) [Example 1-A, 4-Amino-5-(4-chloro-3-hydroxyphenyl)-2-{8-[(3-fluorophenyl)methyl]imidazo[1,2-a]pyrazin-6-yl}-5-methyl-5,7-dihydro-6H-pyrrolo[2,3-d]pyrimidin-6-one] |  |  | A (decrease in SBP 0-5 mmHg)
72 | 6.50 | 9.93 | CC1(c2ccc(Cl)c(O)c2)C(=O)Nc2nc(-c3cn4ccnc4c(Cc4ccccc4F)n3)nc(N)c21 (stereo not shown) [Example 8-A, 4-Amino-5-(4-chloro-3-hydroxyphenyl)-2-{8-[(2-fluorophenyl)methyl]imidazo[1,2-a]pyrazin-6-yl}-5-methyl-5,7-dihydro-6H-pyrrolo[2,3-d]pyrimidin-6-one] |  |  | B (decrease in SBP 5-10 mmHg)
95 | 6.55 | 8.60 | CC1(c2ccc(Cl)c(O)c2)C(=O)Nc2nc(-c3cn4ncnc4c(CCC(F)(F)C(F)(F)F)n3)nc(N)c21 (stereo not shown) [Example 88-A, 4-Amino-5-(4-chloro-3-hydroxyphenyl)-5-methyl-2-(8-(3,3,4,4,4-pentafluorobutyl)-[1,2,4]triazolo[1,5-a]pyrazin-6-yl)-5,7-dihydro-6H-pyrrolo[2,3-d]pyrimidin-6-one] | A (decrease in SBP 0-5 mmHg) |  | 
108 | 6.86 | 9.67 | CC1(c2cc(O)c(Cl)cn2)C(=O)Nc2nc(-c3cn4ncnc4c(CC4CCCCC4)n3)nc(N)c21 (stereo not shown) [Example 105-B, 4-Amino-5-(5-chloro-4-hydroxypyridin-2-yl)-2-(8-(cyclohexylmethyl)-[1,2,4]triazolo[1,5-a]pyrazin-6-yl)-5-methyl-5,7-dihydro-6H-pyrrolo[2,3-d]pyrimidin-6-one] | B (decrease in SBP 5-10 mmHg) |  | 
97 | 6.66 | 9.20 | CC1(c2cc(O)ccn2)C(=O)Nc2nc(-c3cn4ncnc4c(CC4CCCCC4)n3)nc(N)c21 (stereo not shown) [Example 109-A, 4-Amino-2-(8-(cyclo-hexylmethyl)-[1,2,4]-triazolo[1,5-a]pyrazin-6-yl)-5-(4-hydroxy-pyridin-2-yl)-5-methyl-5,7-dihydro-6H-pyrrolo-[2,3-d]pyrimidin-6-one] | C (decrease in SBP >10 mmHg) |  | 
94 | 6.96 | 8.07 | CC1(c2ccc(O)c(F)c2)C(=O)Nc2nc(-c3cn4ccnc4c(CCC(F)(F)C(F)(F)F)n3)nc(N)c21 (racemic) [Example 117-B, 4-Amino-5-(3-fluoro-4-hydroxyphenyl)-5-methyl-2-(8-(3,3,4,4,4-pentafluorobutyl)-imidazo[1,2-a]pyrazin-6-yl)-5,7-dihydro-6H-pyrrolo[2,3-d]pyrimidin-6-one] |  | C (decrease in SBP >10 mmHg) | 
103 | 6.34 | 8.10 | CCCCc1nc(-c2nc(N)c3c(n2)NC(=O)C3(C)c2cc(O)ccn2)cn2ncnc12 (stereo not shown) [Example 118-B, 4-Amino-2-(8-butyl-[1,2,4]triazolo[1,5-a]-pyrazin-6-yl)-5-(4-hydroxypyridin-2-yl)-5-methyl-5,7-dihydro-6H-pyrrolo[2,3-d]-pyrimidin-6-one] |  |  | 
